Data: ChEMBL document CHEMBL3872249, “Computer design, synthesis, and bioactivity analyses of drugs like fingolimod used in the treatment of multiple sclerosis” (Bioorg Med Chem, 2017)

Columns and labels:
Type in all cases: functional
[1] = system: SK-N-SH; test: Effect on CXCL11 mRNA expression in human SK-N-SH cells at EC10 by qPCR method relative to beta-actin
[2] = system: U-118-MG; test: Effect on GRM2 mRNA expression in human U118MG cells at EC10 by qPCR method relative to beta-actin
[3] = system: SH-SY5Y; test: Effect on IL18 mRNA expression in human SH-SY5Y cells at EC10 by qPCR method relative to beta-actin
[4] = system: SH-SY5Y; test: Effect on LTA mRNA expression in human SH-SY5Y cells at EC10 by qPCR method relative to beta-actin
[5] = system: SH-SY5Y; test: Effect on EDN1 mRNA expression in human SH-SY5Y cells at EC10 by qPCR method relative to beta-actin
[6] = system: U-118-MG; test: Effect on IL18 mRNA expression in human U118MG cells at EC10 by qPCR method relative to beta-actin
[7] = system: SH-SY5Y; test: Effect on CRHR1 mRNA expression in human SH-SY5Y cells at EC10 by qPCR method relative to beta-actin
[8] = system: SH-SY5Y; test: Effect on GCGR mRNA expression in human SH-SY5Y cells at EC10 by qPCR method relative to beta-actin
[9] = system: U-118-MG; test: Effect on CRHR1 mRNA expression in human U118MG cells at EC10 by qPCR method relative to beta-actin
[10] = system: SK-N-SH; test: Effect on CRHR1 mRNA expression in human SK-N-SH cells at EC10 by qPCR method relative to beta-actin
[11] = system: SK-N-SH; test: Effect on LTA mRNA expression in human SK-N-SH cells at EC10 by qPCR method relative to beta-actin
[12] = system: SH-SY5Y; test: Effect on TGFB1 mRNA expression in human SH-SY5Y cells at EC10 by qPCR method relative to beta-actin
[13] = system: SK-N-SH; test: Effect on TNFRSF1B mRNA expression in human SK-N-SH cells at EC10 by qPCR method relative to beta-actin
[14] = system: SK-N-SH; test: Effect on CXCL9 mRNA expression in human SK-N-SH cells at EC10 by qPCR method relative to beta-actin
[15] = system: U-118-MG; test: Effect on GRM4 mRNA expression in human U118MG cells at EC10 by qPCR method relative to beta-actin
[16] = system: SH-SY5Y; test: Effect on TGFB2 mRNA expression in human SH-SY5Y cells at EC10 by qPCR method relative to beta-actin
[17] = system: SK-N-SH; test: Effect on TGFB2 mRNA expression in human SK-N-SH cells at EC10 by qPCR method relative to beta-actin
[18] = system: U-118-MG; test: Effect on TNFRSF1A mRNA expression in human U118MG cells at EC10 by qPCR method relative to beta-actin
[19] = system: SH-SY5Y; test: Effect on HLA-DRB1 mRNA expression in human SH-SY5Y cells at EC10 by qPCR method relative to beta-actin
[20] = system: U-118-MG; test: Effect on TGFB1 mRNA expression in human U118MG cells at EC10 by qPCR method relative to beta-actin
[21] = system: SH-SY5Y; test: Effect on PLP1 mRNA expression in human SH-SY5Y cells at EC10 by qPCR method relative to beta-actin
[22] = system: SK-N-SH; test: Effect on PLP1 mRNA expression in human SK-N-SH cells at EC10 by qPCR method relative to beta-actin
[23] = system: SK-N-SH; test: Effect on HLA-DRB1 mRNA expression in human SK-N-SH cells at EC10 by qPCR method relative to beta-actin
[24] = system: U-118-MG; test: Effect on TNFRSF1B mRNA expression in human U118MG cells at EC10 by qPCR method relative to beta-actin
[25] = system: U-118-MG; test: Effect on TGFB2 mRNA expression in human U118MG cells at EC10 by qPCR method relative to beta-actin
[26] = system: U-118-MG; test: Effect on CXCL9 mRNA expression in human U118MG cells at EC10 by qPCR method relative to beta-actin
[27] = system: SH-SY5Y; test: Effect on FOXP3 mRNA expression in human SH-SY5Y cells at EC10 by qPCR method relative to beta-actin
[28] = system: SH-SY5Y; test: Effect on CD44 mRNA expression in human SH-SY5Y cells at EC10 by qPCR method relative to beta-actin
[29] = system: U-118-MG; test: Effect on HIF1A mRNA expression in human U118MG cells at EC10 by qPCR method relative to beta-actin
[30] = system: U-118-MG; test: Effect on APP mRNA expression in human U118MG cells at EC10 by qPCR method relative to beta-actin
[31] = system: SH-SY5Y; test: Effect on AGT mRNA expression in human SH-SY5Y cells at EC10 by qPCR method relative to beta-actin
[32] = system: SK-N-SH; test: Effect on RAF1 mRNA expression in human SK-N-SH cells at EC10 by qPCR method relative to beta-actin
[33] = system: SK-N-SH; test: Effect on PTGDR mRNA expression in human SK-N-SH cells at EC10 by qPCR method relative to beta-actin
[34] = system: SH-SY5Y; test: Effect on HIF1A mRNA expression in human SH-SY5Y cells at EC10 by qPCR method relative to beta-actin
[35] = system: U-118-MG; test: Effect on AGT mRNA expression in human U118MG cells at EC10 by qPCR method relative to beta-actin
[36] = system: SH-SY5Y; test: Effect on RAF1 mRNA expression in human SH-SY5Y cells at EC10 by qPCR method relative to beta-actin
[37] = system: SH-SY5Y; test: Effect on FASLG mRNA expression in human SH-SY5Y cells at EC10 by qPCR method relative to beta-actin
[38] = system: U-118-MG; test: Effect on PTGDR mRNA expression in human U118MG cells at EC10 by qPCR method relative to beta-actin
[39] = system: SH-SY5Y; test: Effect on HDAC1 mRNA expression in human SH-SY5Y cells at EC10 by qPCR method relative to beta-actin
[40] = system: U-118-MG; test: Effect on OPRD1 mRNA expression in human U118MG cells at EC10 by qPCR method relative to beta-actin
[41] = system: SK-N-SH; test: Effect on APP mRNA expression in human SK-N-SH cells at EC10 by qPCR method relative to beta-actin
[42] = system: SK-N-SH; test: Effect on MAL mRNA expression in human SK-N-SH cells at EC10 by qPCR method relative to beta-actin
[43] = system: U-118-MG; test: Effect on STAT3 mRNA expression in human U118MG cells at EC10 by qPCR method relative to beta-actin
[44] = system: U-118-MG; test: Effect on ADRB2 mRNA expression in human U118MG cells at EC10 by qPCR method relative to beta-actin

## CCCCCCCCn1nnnc1CCC(N)(CO)CO.Cl
[1]
  fold change (FC): -3.5538
[2]
  fold change (FC): -3.2823
[3]
  fold change (FC): -3.9685
[4]
  fold change (FC): -2.54
[5]
  fold change (FC): 7.826
[6]
  fold change (FC): -3.772
[7]
  fold change (FC): 4.2103
[8]
  fold change (FC): -4.2885
[9]
  fold change (FC): 4.2936
[10]
  fold change (FC): 4.6448
[11]
  fold change (FC): -5.1941

## CCCCCCCCn1nnnc1-c1ccc(C(O)CC(N)(CO)CO)cc1.Cl (centres undefined)
[12]
  fold change (FC): -5.0784
[13]
  fold change (FC): -5.5404
[14]
  fold change (FC): -4.8484
[15]
  fold change (FC): -5.0773
[16]
  fold change (FC): -2.8716
[17]
  fold change (FC): -4.9847
[18]
  fold change (FC): -3.0144
[19]
  fold change (FC): -2.5613
[20]
  fold change (FC): -5.1404
[21]
  fold change (FC): 3.7859
[22]
  fold change (FC): 4.9417
[23]
  fold change (FC): -4.1339
[24]
  fold change (FC): -3.1207
[25]
  fold change (FC): -5.915
[26]
  fold change (FC): -4.1536

## CCCCCCCCc1ccc(CCC(N)(CO)CO)cc1 [FINGOLIMOD]
[27]
  fold change (FC): -5.5022
[28]
  fold change (FC): -4.0629
[29]
  fold change (FC): -3.2716
[30]
  fold change (FC): -2.5646
[31]
  fold change (FC): 3.9041
[32]
  fold change (FC): -5.2666
[33]
  fold change (FC): -4.3981
[34]
  fold change (FC): -8.3109
[35]
  fold change (FC): 5.5368
[36]
  fold change (FC): -5.0718
[37]
  fold change (FC): -3.0525
[38]
  fold change (FC): -4.4856
[39]
  fold change (FC): -15.9446
[40]
  fold change (FC): 3.818
[41]
  fold change (FC): -8.0801
[42]
  fold change (FC): -4.2778
[43]
  fold change (FC): -2.5624
[44]
  fold change (FC): -4.9171
